Measured values as given in US12109218B2, “Compositions of grapiprant and methods for using the same” (ARATANA THERAPEUTICS, INC., priority 2014, dated 2024).

Columns and labels:
dog EP4 receptors = dog EP4 receptors (Canis lupus familiaris, UniProt A0A8I3MI92); settings: dog EP4 receptor; read-out: Ki, inhibition of [3H]PGE binding; cited from earlier work
[1] = system: other human prostanoid receptor subtypes; settings: cited from earlier work
[2] = 28-day safety and toxicokinetic study in cats (Example 14); assay type: in vivo, cat; settings: for half-life: both sexes, domestic shorthair, cat, serum, oral, 15 mg/kg
Procedure: The objective of this study was to evaluate the feline safety and toxicokinetic profiles of grapiprant. Twenty-four domestic shorthair cats were randomly assigned to receive placebo or 3, 9, or 15 mg/kg grapiprant in a capsule formulation (3 males and 3 females per group) once daily for 28 days. All cats received their assigned medications as per protocol. Food consumption and behavior were observed daily, bodyweight measured weekly, and clinical pathology analyses on blood run on Days −7, 14, and 25, and urinalysis run on Days −7, and 25. Serial blood samples for toxicokinetic analyses were obtained following the Day 0 and Day 27 doses. Full necropsies and histopathological evaluations were performed following humane euthanasia on Day 28.

[3] = system: mechanical hyperalgesia induced by carrageenan model; settings: cited from earlier work
[4] = Pharmacokinetics in cats FPK-13-004 (Example 13); assay type: in vivo, cat; settings: for AUC(0-t) / Cmax / Tmax / half-life / Cmax/Dose: cats
Procedure: This controlled, non-GLP, laboratory study used three treatment groups: Group 1 was dosed with grapiprant at 2.5 mg/animal; Group 2 was dosed with grapiprant at 5 mg/animal; and Group 3 was dosed with grapiprant at 10 mg/animal. Each dose was administered once on Day 0. Blood samples were collected and processed to serum for pharmacokinetic (PK) analysis. Four hours post-dose, all cats were offered food. Following PK sample collections on Day 1, all animals were released to an open feline colony.
Pharmacokinetic parameters were similar between males and females within each dose group, and therefore mean values were determined by combining data from all animals.

[5] = Crossover PK of tablet vs methylcellulose suspension in beagle dogs (Example 15); assay type: in vivo, beagle dog; settings: for Cmax / AUC(0-t) / Tmax: both sexes, dog, serum, po; for Cmax / AUC(0-t): beagle, both sexes combined; for AUC(0-t): read-out: average AUClast
Procedure: The objective of this study was to determine and compare the pharmacokinetic parameters of grapiprant in beagle dogs after single oral administration of a flavored tablet formulation and a methylcellulose suspension formulation at nominal doses of 6 mg/kg and 50 mg/kg. For this study, sixteen beagle dogs, […], were divided into two groups based on the nominal doses of grapiprant, either 6 mg/kg in Groups 3AB or 50 mg/kg in Groups 4A/B. Each group was given the appropriate oral dose in a tablet or in a methylcellulose formulation, using the crossover design as shown below at Table 19, on study Days 0 and 15. Blood samples were collected and serum was prepared, frozen, and analyzed for concentration of grapiprant.
The vehicle was 0.5% methylcellulose (400 centipoise) in water. About half a volume of distilled water was heated to about 40-50° C. Methylcellulose was weighed to give a final concentration of 0.5% (w/v), and dissolved in the heated distilled water with stirring. The flask with the methylcellulose solution was cooled immediately. The remaining distilled water was added into the flask to adjust volume. The final solution was stirred for least 30 minutes.
To prepare 1.2-mg/mL and 10-mg/mL suspensions grapiprant in the vehicle, an appropriate amount of grapiprant was added to a calibrated beaker containing 0.5% aqueous methylcellulose, and mixed using a vortex. The suspension was homogenized using a Polytron™ mixer with attached antifoam bit. A stir bar was added to the beaker, and the suspension was stirred for about 5 minutes. The stir bar was removed temporarily to adjust the volume, and the suspension was stirred for another 5 minutes before it was transferred to a labeled amber dosing container or glass beaker wrapped with foil.
The dosing suspension was prepared fresh on each day of dosing. A vortex depth of between 75% and 100% of the depth of the container containing the 500-mg suspension was achieved on both dosing days. […] Dose formulation samples were transported to the animal room before collection and were collected (while the formulations were being stirred) just before dosing the first animal of each group, and just before dosing the last animal of each group. These steps guard against the 500-mg suspension settling during transport from the formulation laboratory to the animal room.

[6] = 9-month oral toxicity study in dogs with 4-week recovery (Example 7)
Procedure: Four animals per sex were used in each dose group and two additional animals per sex in the 50 mg/kg dose group for recovery purposes. Clinical signs and food consumption were assessed daily. Bodyweight was recorded weekly. Ophthalmologic examination was performed on Weeks 20 and 38 of the dosing phase and Week 4 of the recovery phase. Electrocardiograms were recorded on Weeks 13, 26, and 38 of the dosing phase and Week 4 of the recovery phase. Hematology, coagulation, and serum chemistry parameters were monitored on Weeks 13, 26, and 39 of the dosing phase and Week 4 or 5 of the recovery phase. Urinalyses were performed on Week 37 of the dosing phase and Week 3 or 4 of the recovery phase. […] At the end of the dosing or recovery period, dogs were euthanized and necropsied. After gross examination, selected organs were weighed, and a comprehensive set of tissues was collected and processed for microscopic examination.

[7] = single dose 5 mg (1 mg/kg), mean of all animals
[8] = for a 4-fold increase in dose from 0.5 to 2 mg/kg
[9] = 60 mg, beagle dogs, Day 0, 60-mg suspension
[10] = 60 mg, beagle dogs, Day 0, 60-mg tablet
[11] = 60 mg, beagle dogs, Day 15, 60-mg suspension
[12] = 60 mg, beagle dogs, Day 15, 60-mg tablet
[13] = 500 mg, beagle dogs, Day 0, 500-mg suspension
[14] = 500 mg, beagle dogs, Day 0, 500-mg tablet
[15] = 500 mg, beagle dogs, Day 15, 500-mg suspension
[16] = 500 mg, beagle dogs, Day 15, 500-mg tablet

Chain of dog EP4 receptors (A0A8I3MI92 1-492): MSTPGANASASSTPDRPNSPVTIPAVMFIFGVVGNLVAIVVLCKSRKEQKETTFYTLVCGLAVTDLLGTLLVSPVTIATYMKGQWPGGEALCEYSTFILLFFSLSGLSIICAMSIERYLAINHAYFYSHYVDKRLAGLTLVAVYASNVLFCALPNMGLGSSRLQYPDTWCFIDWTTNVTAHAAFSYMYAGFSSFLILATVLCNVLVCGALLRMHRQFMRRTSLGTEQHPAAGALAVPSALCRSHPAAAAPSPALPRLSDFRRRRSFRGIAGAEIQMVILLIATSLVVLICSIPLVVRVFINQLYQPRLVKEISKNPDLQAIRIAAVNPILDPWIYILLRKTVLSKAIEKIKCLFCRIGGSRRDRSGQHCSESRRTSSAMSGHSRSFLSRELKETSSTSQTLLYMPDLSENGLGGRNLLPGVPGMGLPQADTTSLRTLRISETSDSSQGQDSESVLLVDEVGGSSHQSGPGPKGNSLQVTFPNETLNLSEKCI

Which results are given for `CCc1nc2c(C)nc(C)cc2n1-c1ccc(CCNC(=O)NS(=O)(=O)c2ccc(C)cc2)cc1` [grapiprant, N-{2-[4-(2-ethyl-4,6-dimethyl-1H-imidazo[4,5-c]pyridin-1-yl)phenyl]ethyl}-N′-[(4-methylphenyl)sulfonyl]urea]?
Ki (dog EP4 receptors): 24.1 ± 2.7 nM; selectivity for EP4 over other human prostanoid receptor subtypes [1]: highly selective for the EP4 receptor over other human prostanoid receptor subtypes; half-life ([2]; capsule 3, 9, or 15 mg/kg once daily, Day 27, read-out: Mean half-lives): 3 to 14 h; half-life ([2]; capsule 3, 9, or 15 mg/kg once daily, Day 27, read-out: half-life, median value): 5 to 6 h; tolerability and adverse effects ([2]; capsule 3, 9, or 15 mg/kg once daily for 28 days): well tolerated, and no adverse effects were noted at daily doses up to 15 mg/kg for 28 days; time after administration at which maximum serum concentrations were reached ([2]; capsule 3, 9, or 15 mg/kg once daily, Day 27): 1 to 4 h; effect on mechanical hyperalgesia [3]: significantly reduces mechanical hyperalgesia; AUC(0-t) ([4]; both sexes, serum, 2.5 mg/animal, single dose 2.5 mg (0.5 mg/kg), mean of all animals): 4190 ng·h/mL; Cmax ([4]; both sexes, serum, 2.5 mg/animal, single dose 2.5 mg (0.5 mg/kg), mean of all animals, read-out: Cmax): 1060 ng/mL; Tmax ([4]; both sexes, serum, 5 mg/animal, single dose 5 mg (1 mg/kg), mean of all animals, read-out: Tmax): 1.13 h; AUC(0-t) ([4]; both sexes, serum, 10 mg/animal, single dose 10 mg (2 mg/kg), mean of all animals): 21200 ng·h/mL; Cmax ([4]; both sexes, serum, 10 mg/animal, single dose 10 mg (2 mg/kg), mean of all animals, read-out: Cmax): 4430 ng/mL; Tmax ([4]; both sexes, serum, 0.5 to 2 mg/kg, read-out: Mean Tmax values among groups): 1.13 to 1.5 h; half-life ([4]; both sexes, serum, single dose 2.5 mg (0.5 mg/kg), mean of all animals): 1.58 h; half-life ([4]; both sexes, serum, single dose 5 mg (1 mg/kg), mean of all animals): 1.13 h; half-life ([4]; both sexes, serum, single dose 10 mg (2 mg/kg), mean of all animals): 3.44 h; Cmax/Dose ([4]; single dose 2.5 mg (0.5 mg/kg), mean of all animals): 2120 kg·ng/mL/mg; Cmax [4, 7]: 2690 ng/mL; Cmax/Dose [4, 7]: 2500 kg·ng/mL/mg; Cmax/Dose ([4]; single dose 10 mg (2 mg/kg), mean of all animals): 2150 kg·ng/mL/mg; increase in AUClast [4, 8]: 5.06 fold; increase in Cmax [4, 8]: 4.18 fold; fecal abnormalities ([5]; beagle dogs, single oral 60 mg or 500 mg): Slight increases in the incidence of fecal abnormalities; relative bioavailability ratio (tablet/suspension) ([5]; both dose levels, both trials): greater than 100; Cmax [5, 9]: 4050 ng/mL; AUC(0-t) [5, 9]: 14500 ng·h/mL; Cmax [5, 10]: 5330 ng/mL; AUC(0-t) [5, 10]: 19600 ng·h/mL; Cmax [5, 11]: 3810 ng/mL; AUC(0-t) [5, 11]: 12500 ng·h/mL; Cmax [5, 12]: 6110 ng/mL; AUC(0-t) [5, 12]: 17400 ng·h/mL; Cmax [5, 13]: 76800 ng/mL; AUC(0-t) [5, 13]: 293000 ng·h/mL; Cmax [5, 14]: 96100 ng/mL; AUC(0-t) [5, 14]: 455000 ng·h/mL; Cmax [5, 15]: 74200 ng/mL; AUC(0-t) [5, 15]: 209000 ng·h/mL; Cmax [5, 16]: 101000 ng/mL; AUC(0-t) [5, 16]: 430000 ng·h/mL; Tmax ([5]; beagle dogs, Day 0, 60-mg methylcellulose suspension): 1 h; Tmax ([5]; beagle dogs, Day 15, 500-mg suspension): 1 h; decrease in mean albumin/globulin (A/G) ratio ([6]; 6 mg/kg, Week 39): −16%; histopathological finding ([6]; 50 mg/kg): mild regeneration of the mucosal epithelium of the ileum in one male; decrease in mean serum albumin vs. control value ([6]; 50 mg/kg, Weeks 26 and 39): up to −14%; accumulation ([6]; 1, 6, and 50 mg/kg/day dosing regimen): no accumulation of grapiprant was observed; level with no observed adverse effects ([6]; Beagle dogs, oral once daily, nine months): 6 mg/kg; individual decrease in albumin vs. pre-study ([6]; dose-related trend, 1-50 mg/kg): up to −41%; individual decrease in calcium ([6]; dose-related trend, 1-50 mg/kg): up to −18%; individual decrease in total protein ([6]; dose-related trend, 1-50 mg/kg): up to −30%
